{"source": "PubChem BioAssay (NCI)", "note": "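48-hour exposure; five concentrations; linearly interpolated endpoints. Here, GI50 denotes the concentration required for 50% inhibition of growth. At the TGI there is no net growth.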"}
{"tested_on": "HOP-62 NSCLC", "assay": "NCI anticancer screen, dose series, 48 h", "units": {"GI50": "µM", "TGI": "µM"}}
{"molecule": "Cc1cc(=O)n2[nH]c(-c3ccc(C(C)(C)C)cc3)cc2n1", "GI50": 17.5, "TGI": 76.9}
{"molecule": "O=C(O)c1cc(C(=O)O)cc(N2C(=O)c3ccccc3C2=O)c1", "TGI": "> 100"}
{"molecule": "CNC(=O)c1ccccc1Nc1nc(Nc2ccc(N3CCOCC3)cc2OC)ncc1Cl", "GI50": 0.341, "TGI": 9.07}
{"molecule": "O=C(N/C(=C\\c1cc(Cl)ccc1Cl)c1nc2[nH]c(=S)[nH]c(=O)c2[nH]1)c1ccccc1", "TGI": "> 100"}
{"molecule": "O=C(CN1CCN(c2cc3c(cc2F)c(=O)c(C(=O)N/N=C/c2ccccc2O)cn3C2CC2)CC1)N/N=C\\c1ccccc1O", "GI50": 0.408, "TGI": "> 100"}
{"molecule": "C=C(CNCCO)[C@@H]1CC[C@]2(CO)CC[C@]3(C)[C@H](CC[C@@H]4[C@@]5(C)CCC(N)C(C)(C)[C@@H]5CC[C@]43C)[C@@H]12", "note": "(stereo partly specified)", "GI50": 2.79, "TGI": 7.36}
{"molecule": "CC(=O)C(CN(C(C)C)C(C)C)C(c1ccccc1)c1c(O)c2ccccc2oc1=O", "note": "(stereo unspecified)", "TGI": "> 100"}
{"molecule": "NC(CCc1nc(-c2ccc(Cl)cc2)cs1)C(=O)O", "note": "(stereo unspecified)", "TGI": "> 100"}
{"molecule": "O=C1NC2(CCCCC2)C2CCCCC(O)C12", "note": "(stereo unspecified)", "TGI": "> 100"}
{"molecule": "COc1ccc(-n2/c(=N/C(=S)N(C)C)ss/c2=N\\C(=S)N(C)C)cc1", "TGI": "> 100"}
{"molecule": "COc1cc(C(=O)/C=C/c2sc(Cl)nc2Cl)cc(OC)c1OC", "GI50": 2.29, "TGI": 5.6}
{"molecule": "COc1cc2nc(C)nc(N[C@H](C)c3cc(N)cc(C(F)(F)F)c3)c2cc1O[C@H]1CCOC1", "GI50": 11.1, "TGI": 25.6}
{"tested_on": "UO-31 renal", "assay": "NCI anticancer screen, dose series, 48 h", "units": {"GI50": "µM", "TGI": "µM"}}
{"molecule": "CCCCCCCC(=O)SCC/C=C/[C@@H]1CC(=O)NCc2cccc(n2)C2=N[C@@](C)(CS2)C(=O)N[C@@H](C(C)C)C(=O)N1", "GI50": 4.54, "TGI": "> 33.3"}
{"molecule": "COc1cc2c(c(OC)c1O)C(=O)C(OC)C(c1ccc(O)c(O)c1)O2", "note": "(stereo unspecified)", "GI50": 0.53, "TGI": "> 100"}
{"molecule": "Cn1ccnc1C(=O)/C=C/c1ccc(CC(=O)Nc2ccc(Br)cc2)cc1", "GI50": 2.19, "TGI": 4.39}
{"molecule": "Cc1cnc(NC(=O)C(Cc2ccccc2)NC(=O)c2ccccc2)s1", "note": "(stereo unspecified)", "GI50": 3.98, "TGI": 18.9}
{"molecule": "CCOC(=O)COc1cccc2c1C(=O)CCO2", "TGI": "> 100"}
{"molecule": "CC(C)c1ccc(C(C)C(=O)N(CC2=C(C(C)c3ccccn3)c3ccccc3C2)C(C)C)cc1", "note": "(stereo unspecified)", "GI50": 1.53, "TGI": 7.29}
{"molecule": "CSc1ccc(/C=C2\\CN(C)C/C(=C\\c3ccc(SC)cc3)C2=O)cc1", "TGI": "> 100"}
{"molecule": "Cc1nc2c(nc1C)C(=O)c1ccccc1C2=O", "TGI": 36.2}
{"molecule": "O[C@H]1[C@H]2c3cc4c(cc3CN3CCC(=C[C@@H]1O)[C@H]23)OCO4", "TGI": 4.77}
{"molecule": "O=C(Nc1ccc(I)cc1)c1cc([N+](=O)[O-])ccc1O", "GI50": 3.77, "TGI": 47.6}
{"molecule": "Cc1cc(=O)n2[nH]c(-c3ccc(C(C)(C)C)cc3)cc2n1", "GI50": 3.17, "TGI": "> 100"}
{"molecule": "O=C(O)c1cc(C(=O)O)cc(N2C(=O)c3ccccc3C2=O)c1", "TGI": "> 100"}
{"molecule": "CNC(=O)c1ccccc1Nc1nc(Nc2ccc(N3CCOCC3)cc2OC)ncc1Cl", "GI50": 0.4, "TGI": 4.44}
{"molecule": "O=C(N/C(=C\\c1cc(Cl)ccc1Cl)c1nc2[nH]c(=S)[nH]c(=O)c2[nH]1)c1ccccc1", "TGI": "> 76.4"}
{"molecule": "O=C(CN1CCN(c2cc3c(cc2F)c(=O)c(C(=O)N/N=C/c2ccccc2O)cn3C2CC2)CC1)N/N=C\\c1ccccc1O", "GI50": 0.359, "TGI": "> 100"}
{"molecule": "C=C(CNCCO)[C@@H]1CC[C@]2(CO)CC[C@]3(C)[C@H](CC[C@@H]4[C@@]5(C)CCC(N)C(C)(C)[C@@H]5CC[C@]43C)[C@@H]12", "note": "(stereo partly specified)", "GI50": 13.2, "TGI": 26.8}
{"molecule": "CC(=O)C(CN(C(C)C)C(C)C)C(c1ccccc1)c1c(O)c2ccccc2oc1=O", "note": "(stereo unspecified)", "TGI": "> 100"}
{"molecule": "NC(CCc1nc(-c2ccc(Cl)cc2)cs1)C(=O)O", "note": "(stereo unspecified)", "TGI": "> 100"}
{"molecule": "O=C1NC2(CCCCC2)C2CCCCC(O)C12", "note": "(stereo unspecified)", "TGI": "> 100"}
{"molecule": "COc1ccc(-n2/c(=N/C(=S)N(C)C)ss/c2=N\\C(=S)N(C)C)cc1", "TGI": "> 100"}
{"molecule": "COc1cc(C(=O)/C=C/c2sc(Cl)nc2Cl)cc(OC)c1OC", "GI50": 1.44, "TGI": 2.75}
{"molecule": "COc1cc2nc(C)nc(N[C@H](C)c3cc(N)cc(C(F)(F)F)c3)c2cc1O[C@H]1CCOC1", "GI50": 2.28, "TGI": 17.3}
{"tested_on": "A498 renal", "assay": "NCI anticancer screen, dose series, 48 h", "units": {"GI50": "µM", "TGI": "µM"}}
{"molecule": "CCCCCCCC(=O)SCC/C=C/[C@@H]1CC(=O)NCc2cccc(n2)C2=N[C@@](C)(CS2)C(=O)N[C@@H](C(C)C)C(=O)N1", "GI50": 0.394, "TGI": 6.2}
{"molecule": "COc1cc2c(c(OC)c1O)C(=O)C(OC)C(c1ccc(O)c(O)c1)O2", "note": "(stereo unspecified)", "GI50": 0.228, "TGI": 0.812}
{"molecule": "Cn1ccnc1C(=O)/C=C/c1ccc(CC(=O)Nc2ccc(Br)cc2)cc1", "GI50": 4.35, "TGI": 12.6}
{"molecule": "Cc1cnc(NC(=O)C(Cc2ccccc2)NC(=O)c2ccccc2)s1", "note": "(stereo unspecified)", "GI50": 31.1, "TGI": "> 100"}
{"molecule": "CCOC(=O)COc1cccc2c1C(=O)CCO2", "TGI": "> 100"}
{"molecule": "CC(C)c1ccc(C(C)C(=O)N(CC2=C(C(C)c3ccccn3)c3ccccc3C2)C(C)C)cc1", "note": "(stereo unspecified)", "GI50": 0.801, "TGI": 5.59}
{"molecule": "CSc1ccc(/C=C2\\CN(C)C/C(=C\\c3ccc(SC)cc3)C2=O)cc1", "TGI": "> 100"}
{"molecule": "Cc1nc2c(nc1C)C(=O)c1ccccc1C2=O", "TGI": 8.98}
{"molecule": "O[C@H]1[C@H]2c3cc4c(cc3CN3CCC(=C[C@@H]1O)[C@H]23)OCO4", "TGI": 12.8}
{"molecule": "O=C(Nc1ccc(I)cc1)c1cc([N+](=O)[O-])ccc1O", "GI50": 1.45, "TGI": 5.17}
{"molecule": "Cc1cc(=O)n2[nH]c(-c3ccc(C(C)(C)C)cc3)cc2n1", "GI50": 1.54, "TGI": 36.9}
{"molecule": "O=C(O)c1cc(C(=O)O)cc(N2C(=O)c3ccccc3C2=O)c1", "TGI": "> 100"}
{"molecule": "CNC(=O)c1ccccc1Nc1nc(Nc2ccc(N3CCOCC3)cc2OC)ncc1Cl", "GI50": 0.488, "TGI": 2.39}
{"molecule": "O=C(N/C(=C\\c1cc(Cl)ccc1Cl)c1nc2[nH]c(=S)[nH]c(=O)c2[nH]1)c1ccccc1", "TGI": "> 100"}
{"molecule": "O=C(CN1CCN(c2cc3c(cc2F)c(=O)c(C(=O)N/N=C/c2ccccc2O)cn3C2CC2)CC1)N/N=C\\c1ccccc1O", "GI50": 6.03, "TGI": "> 100"}
{"molecule": "C=C(CNCCO)[C@@H]1CC[C@]2(CO)CC[C@]3(C)[C@H](CC[C@@H]4[C@@]5(C)CCC(N)C(C)(C)[C@@H]5CC[C@]43C)[C@@H]12", "note": "(stereo partly specified)", "GI50": 9.55, "TGI": 22.6}
{"molecule": "CC(=O)C(CN(C(C)C)C(C)C)C(c1ccccc1)c1c(O)c2ccccc2oc1=O", "note": "(stereo unspecified)", "TGI": "> 100"}
{"molecule": "NC(CCc1nc(-c2ccc(Cl)cc2)cs1)C(=O)O", "note": "(stereo unspecified)", "TGI": "> 100"}
{"molecule": "O=C1NC2(CCCCC2)C2CCCCC(O)C12", "note": "(stereo unspecified)", "TGI": "> 100"}
{"molecule": "COc1ccc(-n2/c(=N/C(=S)N(C)C)ss/c2=N\\C(=S)N(C)C)cc1", "TGI": "> 100"}
{"molecule": "COc1cc(C(=O)/C=C/c2sc(Cl)nc2Cl)cc(OC)c1OC", "GI50": 7.62, "TGI": 20.5}
{"molecule": "COc1cc2nc(C)nc(N[C@H](C)c3cc(N)cc(C(F)(F)F)c3)c2cc1O[C@H]1CCOC1", "GI50": 0.109, "TGI": 7.84}
